Measurements reported in patent publication US10961216B2, “Small molecule modulators of the androgen receptor” (Massachusetts Institute of Technology, priority 2017, dated 2021).
pIC50: −log10 of the molar value. In brackets after ≈: the same amount, converted by molar mass. Read-outs that look alike come from different tables or passages of the source.

What was measured:
[1] = target: T1, AR-v7 (Homo sapiens, UniProt P10275); assay: small molecule microarray (SMM) screen, binding to AR-v7; settings: SMM screened against AR-truncate of NTD and DBD (exons 1-3), with qPCR and reporter assays
T1 construct: screened against a functional AR-truncate composed of the NTD and DBD (exons 1-3)
T1 sequence (P10275 1-628 limits assumed): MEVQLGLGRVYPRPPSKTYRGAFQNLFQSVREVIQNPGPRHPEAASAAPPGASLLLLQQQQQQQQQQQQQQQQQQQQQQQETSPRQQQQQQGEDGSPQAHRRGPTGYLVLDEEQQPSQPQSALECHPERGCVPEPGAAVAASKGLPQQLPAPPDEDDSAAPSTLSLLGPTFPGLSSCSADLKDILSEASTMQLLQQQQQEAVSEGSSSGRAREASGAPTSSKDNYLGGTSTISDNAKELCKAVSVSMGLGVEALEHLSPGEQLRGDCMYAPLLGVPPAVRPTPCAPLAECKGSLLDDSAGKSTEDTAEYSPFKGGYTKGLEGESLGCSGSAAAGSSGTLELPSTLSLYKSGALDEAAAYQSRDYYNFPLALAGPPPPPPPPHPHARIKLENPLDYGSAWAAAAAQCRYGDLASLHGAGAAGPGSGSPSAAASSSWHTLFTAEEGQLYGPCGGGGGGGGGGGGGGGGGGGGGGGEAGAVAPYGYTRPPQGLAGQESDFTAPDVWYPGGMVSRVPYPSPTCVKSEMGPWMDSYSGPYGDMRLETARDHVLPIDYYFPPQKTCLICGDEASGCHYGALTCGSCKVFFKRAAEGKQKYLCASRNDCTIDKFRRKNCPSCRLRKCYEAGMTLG
Description: (§1) To meet this need, compounds binding to AR-v7 were identified using the combination of a small molecule microarray (SMM) screen of 50,000 compounds, qPCR, and reporter assays. The SMM was screened against a functional AR-truncate composed of the NTD and DBD (exons 1-3) and therefore targeting these domains specifically. Candidate compounds were further evaluated in a series of assays designed to show specificity to AR-sensitive cell lines.

[2] = test system: LNCaP; assay: LNCaP reporter assay; assay type: cell-based; settings: Homo sapiens
Description: as §1
Compounds of the invention may also be identified via a reporter assay. Reporter assays are commonly used to study signaling pathways, gene expression and regulation at the transcriptional level, and the structure of regulatory elements. In general, a reporter assay comprises a regulatory element of interest (e.g. promoter DNA) along with a reporter gene (e.g., gene encoding a reporter protein) cloned into a vector and transfected into cells. In certain embodiments, a reporter is a protein. In certain embodiments, a reporter is a protein with an easily measureable activity. “Easily measureable activity” (or simply “activity”) can refer to any activity that can be measured through methods known in the art, such as fluorescence, enzymatic activities that generate fluorescent or luminescent products, or indirectly with antibodies. […]

[3] = test system: 22Rv1 cell line lentiviral transduced with CMV-firefly luciferase; assay: reporter gene assay to monitor transcriptional effects; assay type: cell-based; settings: Homo sapiens; 22Rv1, CMV-firefly luciferase
Description: (§2) All compounds were evaluated in a reporter gene assay (22Rv1 cell line lentiviral transduced with CMV-firefly luciferase) to monitor transcriptional effects and two cell viability assays (Cell-titer blue; PC3 cell line, an AR insensitive cell line, and LNCaP cell line, an AR sensitive cell line). The compounds were also monitored for aggregation.

[4] = Solubility; assay type: physicochemical
[5] = test system: LNCaP cell line, an AR sensitive cell line; assay: cell viability assay (Cell-titer blue), LNCaP; assay type: cell-based; settings: Homo sapiens, read-out: LNCaP CTB IC50
Description: as §2

[6] = test system: PC3 cell line, an AR insensitive cell line; assay: cell viability assay (Cell-titer blue), PC3; assay type: cell-based; settings: Homo sapiens, PC-3, read-out: PC3 CTB IC50
Description: as §2

Row | SMILES | binding to AR-v7 [1] | pIC50 [2] | Solubility [4] | pIC50 [5] | pIC50 [6] | Solubility ([4]; read-out: Solubility) | pIC50 [3]
1 | Cc1c(C(=O)N(C)Cc2cccc3ncccc23)sc2ncnc(NCC3C[C@@H]4C=C[C@H]3C4)c12 (stereo partly drawn) [Compound (2), 4-((((1R,4R)-bicyclo[2.2.1]hept-5-en-2-yl)methyl)amino)-N,5-dimethyl-N-(quinolin-5-ylmethyl)thieno[2,3-d]pyrimidine-6-carboxamide] | found to bind to AR-v7 | 5.16 |  |  |  |  | 
2 | O=C(NCCC1CC2C=CC1C2)c1cccc(OC2CCN(C(=O)C3CCCC3)CC2)c1 (centres unmarked) [Compound I-3] |  |  | 25 mM (≈ 10.9 mg/mL) | 4.78 | 2.45 |  | ~4.61
3 | O=C(NCCC1CC2C=CC1C2)c1cccc(OC2CCN(C(=O)C3CCCCC3)CC2)c1 (centres unmarked) [Compound I-4] |  |  | 25 mM (≈ 11.3 mg/mL) | 4.61 | 1.48 |  | ~4.60
4 | O=C(NCCC1CC2C=CC1C2)c1cccc(OC2CCN(C(=O)C3CCC3)CC2)c1 (centres unmarked) [Compound I-5] |  |  | 25 mM (≈ 10.6 mg/mL) | 4.61 |  |  | ~4.60
5 | O=C(NCCC1CC2C=CC1C2)c1cccc(OC2CCN(C(=O)c3ccccc3)CC2)c1 (centres unmarked) [Compound I-6] |  |  | 25 mM (≈ 11.1 mg/mL) | 5.09 |  |  | ~4.60
6 | O=C(NCCC1CC2C=CC1C2)c1cccc(OC2CCN(C(=O)Cc3ccccc3)CC2)c1 (centres unmarked) [Compound I-7] |  |  | 25 mM (≈ 11.5 mg/mL) | 4.28 |  |  | ~4.59
7 | O=C(NCCC1CC2C=CC1C2)c1cccc(OC2CCN(C(=O)C(F)(F)F)CC2)c1 (centres unmarked) [Compound I-8] |  |  | 25 mM (≈ 10.9 mg/mL) | 4.15 |  |  | 4.66
8 | O=C(NCC1CC2C=CC1C2)c1cccc(OC2CCN(C(=O)C3CC3)CC2)c1 (centres unmarked) [Compound I-11] |  |  | 25 mM (≈ 9.86 mg/mL) |  |  |  | 4.55
9 | CC(NC(=O)c1cccc(OC2CCN(C(=O)C3CC3)CC2)c1)C12CC3CC(CC(C3)C1)C2 (centres unmarked) [Compound I-14] |  |  | 25 mM (≈ 11.3 mg/mL) |  |  |  | 
10 | O=C(NCC1CC2C=CC1C2)c1cccc(OC2CCN(C(=O)C(F)(F)F)CC2)c1 (centres unmarked) [Compound I-17] |  |  | 25 mM (≈ 10.6 mg/mL) | 4.74 |  |  | 5.28
11 | O=C(NCC1CC2C=CC1C2)c1cccc(OC2CCN(C(=O)C3CCC3)CC2)c1 (centres unmarked) [Compound I-18] |  |  | 25 mM (≈ 10.2 mg/mL) | 4.38 |  |  | ~4.61
12 | CC(=O)Oc1cccc(C(=O)NCC2CC3C=CC2CC3)c1 (centres unmarked) [Compound I-19] |  |  | 25 mM (≈ 7.48 mg/mL) |  |  |  | 
13 | O=C(NCC1CC2C=CC1CC2)c1cccc(O)c1 (centres unmarked) [Compound I-20] |  |  | 25 mM (≈ 6.43 mg/mL) |  |  |  | 
14 | CCCC(CCC)C(=O)N1CCC(Oc2cccc(C(=O)NCCC3CC4C=CC3C4)c2)CC1 (centres unmarked) [Compound I-21] |  |  | 25 mM (≈ 11.7 mg/mL) | 3.47 |  |  | 
15 | O=C(NCC1CC2C=CC1CC2)c1cccc(OC2CCN(C(=O)C3CC3)CC2)c1 (centres unmarked) [Compound I-23] |  |  | 25 mM (≈ 10.2 mg/mL) | 2.99 |  |  | ~4.59
16 | CN(Cc1cccc2ncccc12)C(=O)c1cccc(OC2CCN(C(=O)C3CC3)CC2)c1 [Compound I-24] |  |  |  | 2.78 |  | 12.5 mM (≈ 5.54 mg/mL) | 4.69
17 | CCCCC(=O)N1CCC(Oc2cccc(C(=O)NCCC3CC4C=CC3C4)c2)CC1 (centres unmarked) [Compound I-34] |  |  |  | 4.54 | 4.25 | 12.5 mM (≈ 5.31 mg/mL) | ~4.56
18 | C=CCCC(=O)N1CCC(Oc2cccc(C(=O)NCCC3CC4C=CC3C4)c2)CC1 (centres unmarked) [Compound I-35] |  |  | 25 mM (≈ 10.6 mg/mL) | 4.58 |  |  | 4.50
19 | CCOC(=O)C1C2C=CC(C2)C1CNC(=O)c1ccc(OC2CCN(C(=O)C3CC3)CC2)cc1 (centres unmarked) [Compound I-38] |  |  |  |  | 2.72 | 12.5 mM (≈ 5.83 mg/mL) | 
20 | O=C(NCC1CC2C=CC1CC2)c1cccc(OC2CCN(C(=O)C(F)(F)F)CC2)c1 (centres unmarked) [Compound I-39] |  |  | 25 mM (≈ 10.9 mg/mL) | 3.40 | 4.03 |  | 
21 | Cc1c(C(=O)N(C)Cc2cccc3ncccc23)sc2ncnc(NCC3C4C=CC(C4)C3CO)c12 (centres unmarked) [II-3] |  |  | 25 mM (≈ 12.5 mg/mL) | 3.31 | 2.49 |  | 
22 | Cc1c(C(=O)N(C)Cc2cccc3ncccc23)sc2ncnc(NCCC3CCCCC3)c12 [II-4] |  |  | 25 mM (≈ 11.8 mg/mL) | 4.97 |  |  | 5.02
23 | Cc1c(C(=O)N(C)Cc2cccc3ncccc23)sc2ncnc(NCC3CC4C=CC3CC4)c12 (centres unmarked) [II-5] |  |  | 25 mM (≈ 12.1 mg/mL) | 5.09 | 3.11 |  | 5.63
24 | Cc1c(C(=O)N(C)Cc2cccc3ncccc23)sc2ncnc(NCCC3CC4C=CC3C4)c12 (centres unmarked) [II-6] |  |  | 25 mM (≈ 12.1 mg/mL) | 4.85 | 2.77 |  | 5.08
25 | Cc1c(C(=O)Nc2ccc3ccccc3c2)sc2ncnc(NCC3CC4C=CC3C4)c12 (centres unmarked) [II-7] |  |  | 25 mM (≈ 11 mg/mL) | 4.17 |  |  | 

Further lines, with some results ahead:

Row | binding to AR-v7 [1] | pIC50 [2] | Solubility [4] | pIC50 [5] | pIC50 [6] | Solubility ([4]; read-out: Solubility) | SMILES | pIC50 [3]
26 |  |  | 25 mM (≈ 11.1 mg/mL) | 3.45 |  |  | O=C(NCCC1CC2C=CC1C2)c1cccc(OC2CCN(C(=O)c3cccnc3)CC2)c1 (centres unmarked) [Compound I-9] | 
27 |  |  | 25 mM (≈ 10.2 mg/mL) |  |  |  | O=C(NCCC1CC2C=CC1C2)c1ccc(OC2CCN(C(=O)C3CC3)CC2)cc1 (centres unmarked) [Compound I-10] | 
28 |  |  | 25 mM (≈ 10.9 mg/mL) | 3.76 |  |  | O=C(NCC12CC3CC(CC(C3)C1)C2)c1cccc(OC2CCN(C(=O)C3CC3)CC2)c1 [Compound I-13] | 
29 |  |  |  | 2.45 |  | 6.25 mM (≈ 3.17 mg/mL) | O=C(NCCC1CC2C=CC1C2)c1cccc(OC2CCN(C(=O)CCc3ccc(Cl)cc3)CC2)c1 (centres unmarked) [Compound I-22] | 
30 |  |  | 25 mM (≈ 10.2 mg/mL) | 3.41 |  |  | O=C(NCC1CC2C=CC1CC2)c1ccc(OC2CCN(C(=O)C3CC3)CC2)cc1 (centres unmarked) [Compound I-25] | 
31 |  |  | 25 mM (≈ 10.2 mg/mL) | 3.65 | 3.47 |  | O=C(NCCCc1ccccc1)c1cccc(OC2CCN(C(=O)C3CC3)CC2)c1 [Compound I-26] | 
32 |  |  |  | 4.54 | 4.30 | 12.5 mM (≈ 5.18 mg/mL) | O=C(Nc1ccc2ccccc2c1)c1cccc(OC2CCN(C(=O)C3CC3)CC2)c1 [Compound I-27] | 
33 |  |  | 25 mM (≈ 9.97 mg/mL) | 3.16 | 3.75 |  | O=C(Nc1ccc(Cl)cc1)c1cccc(OC2CCN(C(=O)C3CC3)CC2)c1 [Compound I-28] | 
34 |  |  | 25 mM (≈ 10.2 mg/mL) | 4.60 |  |  | CC(C)c1ccc(NC(=O)c2cccc(OC3CCN(C(=O)C4CC4)CC3)c2)cc1 [Compound I-29] | 
35 |  |  | 25 mM (≈ 9.11 mg/mL) | 3.87 |  |  | O=C(Nc1ccccc1)c1cccc(OC2CCN(C(=O)C3CC3)CC2)c1 [Compound I-30] | 
36 |  |  | 25 mM (≈ 9.46 mg/mL) | 4.20 | 3.78 |  | O=C(NCc1ccccc1)c1cccc(OC2CCN(C(=O)C3CC3)CC2)c1 [Compound I-31] | 
37 |  |  | 25 mM (≈ 9.96 mg/mL) | 4.10 | 4.00 |  | O=C(NCCC1CCCCC1)c1cccc(OC2CCN(C(=O)C3CC3)CC2)c1 [Compound I-32] | 
38 |  |  | 25 mM (≈ 11 mg/mL) |  | 4.09 |  | CC(=O)CCC(=O)N1CCC(Oc2cccc(C(=O)NCCC3CC4C=CC3C4)c2)CC1 (centres unmarked) [Compound I-36] | 
39 |  |  | 25 mM (≈ 10.6 mg/mL) |  | 2.94 |  | O=C(NCC1C2C=CC(C2)C1CO)c1ccc(OC2CCN(C(=O)C3CC3)CC2)cc1 (centres unmarked) [Compound I-37] | 
40 |  |  | 25 mM (≈ 11.1 mg/mL) | 3.92 | 4.04 |  | O=C(NCC1CC2C=CC1CC2)c1cccc(OC2CCN(C(=O)c3cccnc3)CC2)c1 (centres unmarked) [Compound I-40] | 
